Legend:
[1] = target: T1, EP2 (Homo sapiens, UniProt P43116); assay: EP2 flipr; assay type: cell-based
Source text: (§1) US 2007/0129552, incorporated by reference herein, describes the methods used to obtain the in vitro data in the table below.

[2] = target: T1, EP2; assay: EP2 cAMP; assay type: cell-based
Source text: as §1

[3] = target: T1, EP2; assay: EP2 Ki (binding)
Source text: as §1

[4] = target: T2, EP4 (Homo sapiens, UniProt P35408); assay: EP4 flipr; assay type: cell-based
Source text: as §1

[5] = target: T2, EP4; assay: EP4 KI (binding)
Source text: as §1

[6] = target: hFP (Homo sapiens, UniProt P43088); assay: Other receptors: hFP EC50; assay type: cell-based
Source text: as §1

[7] = target: T3, hEP1 (Homo sapiens, UniProt P34995); assay: Other receptors: hEP1 EC50; assay type: cell-based
T3 sequence (P34995 1-402): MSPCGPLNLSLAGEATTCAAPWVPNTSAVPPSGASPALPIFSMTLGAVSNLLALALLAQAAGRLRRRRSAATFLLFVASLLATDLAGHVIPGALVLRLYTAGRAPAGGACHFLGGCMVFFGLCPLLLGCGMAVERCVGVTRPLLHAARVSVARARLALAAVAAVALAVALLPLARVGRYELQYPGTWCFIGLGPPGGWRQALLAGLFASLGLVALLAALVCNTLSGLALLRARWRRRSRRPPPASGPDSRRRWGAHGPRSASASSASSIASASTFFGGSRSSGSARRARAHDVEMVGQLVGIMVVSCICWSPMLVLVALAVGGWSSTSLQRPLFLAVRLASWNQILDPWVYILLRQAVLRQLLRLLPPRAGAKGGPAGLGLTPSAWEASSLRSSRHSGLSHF
Source text: as §1

[8] = target: T4, hEP3A (Homo sapiens, UniProt P43115); assay: Other receptors: hEP3A EC50; assay type: cell-based
T4 sequence (P43115 1-390): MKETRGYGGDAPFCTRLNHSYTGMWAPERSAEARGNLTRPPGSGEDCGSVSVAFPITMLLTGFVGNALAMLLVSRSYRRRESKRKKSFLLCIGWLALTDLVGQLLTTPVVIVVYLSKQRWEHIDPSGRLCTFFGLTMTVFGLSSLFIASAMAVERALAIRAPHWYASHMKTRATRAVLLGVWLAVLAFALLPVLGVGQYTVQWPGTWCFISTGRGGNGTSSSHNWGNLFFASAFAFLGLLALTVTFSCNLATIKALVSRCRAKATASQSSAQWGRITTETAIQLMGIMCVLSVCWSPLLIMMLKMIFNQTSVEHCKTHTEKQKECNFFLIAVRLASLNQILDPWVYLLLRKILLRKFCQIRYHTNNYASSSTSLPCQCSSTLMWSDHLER
Source text: as §1

[9] = target: T5, hTP (Homo sapiens, UniProt P21731); assay: Other receptors: hTP EC50; assay type: cell-based
T5 sequence (P21731 1-343): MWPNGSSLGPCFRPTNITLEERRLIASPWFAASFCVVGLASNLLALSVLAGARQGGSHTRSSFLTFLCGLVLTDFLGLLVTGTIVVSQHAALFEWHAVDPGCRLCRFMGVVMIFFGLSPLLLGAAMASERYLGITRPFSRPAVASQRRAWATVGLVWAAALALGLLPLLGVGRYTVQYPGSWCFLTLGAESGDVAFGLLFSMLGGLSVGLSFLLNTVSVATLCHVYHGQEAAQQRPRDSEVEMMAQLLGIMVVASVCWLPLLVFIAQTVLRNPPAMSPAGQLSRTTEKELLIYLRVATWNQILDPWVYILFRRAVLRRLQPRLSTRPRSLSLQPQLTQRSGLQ
Source text: as §1

[10] = target: hIP (Homo sapiens, UniProt P43119); assay: Other receptors: hIP EC50; assay type: cell-based
Source text: as §1

[11] = target: T6, hDP (Homo sapiens, UniProt Q13258); assay: Other receptors: hDP EC50; assay type: cell-based
T6 sequence (Q13258 1-359): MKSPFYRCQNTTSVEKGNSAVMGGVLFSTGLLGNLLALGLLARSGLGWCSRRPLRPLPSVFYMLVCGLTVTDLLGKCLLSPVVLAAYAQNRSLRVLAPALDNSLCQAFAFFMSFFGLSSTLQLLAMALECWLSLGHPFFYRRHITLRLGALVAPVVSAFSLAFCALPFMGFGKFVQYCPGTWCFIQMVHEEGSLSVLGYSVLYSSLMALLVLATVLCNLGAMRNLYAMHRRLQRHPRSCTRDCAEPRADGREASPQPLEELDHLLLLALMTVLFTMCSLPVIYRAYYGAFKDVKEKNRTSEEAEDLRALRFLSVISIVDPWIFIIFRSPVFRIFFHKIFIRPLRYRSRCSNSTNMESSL
Source text: as §1

T1 sequence (P43116 whole entry): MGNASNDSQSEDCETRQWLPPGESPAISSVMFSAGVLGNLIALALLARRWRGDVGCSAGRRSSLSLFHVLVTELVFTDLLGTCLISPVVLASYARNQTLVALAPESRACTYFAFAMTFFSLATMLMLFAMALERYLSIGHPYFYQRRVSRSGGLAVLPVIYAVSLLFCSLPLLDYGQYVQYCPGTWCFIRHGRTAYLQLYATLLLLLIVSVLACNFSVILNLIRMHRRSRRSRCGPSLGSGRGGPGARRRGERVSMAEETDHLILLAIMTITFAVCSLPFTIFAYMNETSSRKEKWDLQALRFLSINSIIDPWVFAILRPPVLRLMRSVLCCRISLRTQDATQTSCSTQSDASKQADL
T2 sequence (P35408 whole entry): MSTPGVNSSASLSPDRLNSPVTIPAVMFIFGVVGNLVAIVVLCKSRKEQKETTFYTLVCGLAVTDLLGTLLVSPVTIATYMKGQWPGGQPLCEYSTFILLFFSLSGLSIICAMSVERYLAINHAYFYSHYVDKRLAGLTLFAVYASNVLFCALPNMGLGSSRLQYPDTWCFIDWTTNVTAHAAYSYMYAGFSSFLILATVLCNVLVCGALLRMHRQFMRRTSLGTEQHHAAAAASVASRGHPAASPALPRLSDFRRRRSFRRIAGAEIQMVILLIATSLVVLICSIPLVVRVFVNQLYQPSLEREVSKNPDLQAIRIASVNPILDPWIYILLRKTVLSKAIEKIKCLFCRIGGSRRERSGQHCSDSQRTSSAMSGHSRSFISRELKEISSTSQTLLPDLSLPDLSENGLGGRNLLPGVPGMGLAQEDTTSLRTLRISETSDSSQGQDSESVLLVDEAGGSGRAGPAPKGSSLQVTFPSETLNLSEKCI
Chain of hFP (P43088 whole entry): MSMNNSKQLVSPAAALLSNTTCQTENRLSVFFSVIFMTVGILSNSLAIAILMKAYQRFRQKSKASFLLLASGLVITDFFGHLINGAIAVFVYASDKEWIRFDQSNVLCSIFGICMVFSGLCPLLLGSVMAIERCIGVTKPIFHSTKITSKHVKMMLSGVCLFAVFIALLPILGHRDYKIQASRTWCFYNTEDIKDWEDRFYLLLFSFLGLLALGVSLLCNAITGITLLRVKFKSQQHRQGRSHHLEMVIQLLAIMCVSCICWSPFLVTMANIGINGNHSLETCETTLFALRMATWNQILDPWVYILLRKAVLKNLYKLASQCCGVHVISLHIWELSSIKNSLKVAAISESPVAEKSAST
Chain of hIP (P43119 whole entry): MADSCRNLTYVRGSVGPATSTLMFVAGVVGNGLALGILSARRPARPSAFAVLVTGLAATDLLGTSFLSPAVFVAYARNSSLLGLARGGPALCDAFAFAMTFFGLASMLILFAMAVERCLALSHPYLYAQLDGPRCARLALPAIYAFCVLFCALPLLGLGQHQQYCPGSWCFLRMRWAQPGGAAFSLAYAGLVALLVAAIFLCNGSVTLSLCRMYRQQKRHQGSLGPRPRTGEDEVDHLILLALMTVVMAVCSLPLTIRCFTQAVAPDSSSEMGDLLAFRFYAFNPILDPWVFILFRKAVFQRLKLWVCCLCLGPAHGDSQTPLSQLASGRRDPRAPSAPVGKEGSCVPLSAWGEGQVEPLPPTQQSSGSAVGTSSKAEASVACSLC

Structure (SMILES)	EC50 [1] [nM]	EC50 [2] [nM]	Ki [3] [nM]	EC50 [4] [nM]	Ki [5] [nM]	EC50 [6] [nM]	EC50 [7] [nM]	EC50 [8] [nM]	EC50 [9] [nM]	EC50 [10] [nM]	EC50 [11] [nM]
O=C(O)CCC/C=C\C[C@@H]1[C@@H](COCc2cccc(C(F)(F)F)c2)[C@H](O)C[C@H]1Cl	195	5	214	2330	3170	22500	97	88	11	7	> 10000
CCc1cccc(COC[C@@H]2[C@@H](CCCc3ccc(C(=O)O)s3)[C@H](Cl)C[C@H]2O)c1	255	0.5	3	6540	606				2520		> 10000
O=C(O)c1ccc(CCC[C@@H]2[C@@H](CCCc3cc(Cl)cc(Cl)c3)[C@H](O)C[C@H]2Cl)s1	9920	1	0.6	10100	999			8060	7110		
CCc1cccc(CCC[C@@H]2[C@@H](CCCc3ccc(C(=O)O)s3)[C@H](Cl)C[C@H]2O)c1	13800	0.9	4	> 10000	1840						
O=C(O)c1ccc(CCC[C@@H]2[C@@H](CCCc3cccc(C(F)(F)F)c3)[C@H](O)C[C@H]2Cl)s1	2520	0.3	0.5		740		4260				
O=C(O)c1ccc(CCC[C@@H]2[C@@H](C=C=Cc3cccc(C(F)(F)F)c3)[C@H](O)C[C@H]2Cl)s1	3260	1.7	11								
O=C(O)c1ccc(CCC[C@@H]2[C@@H](CCCc3ccccc3)[C@H](O)C[C@H]2Cl)s1		0.6	3	4960	2160						6780
O=C(O)c1ccc(CCC[C@@H]2[C@@H](C=C=Cc3ccccc3)[C@H](O)C[C@H]2Cl)s1		1.7	6	11100	715						10200
CN(Cc1ccccc1)C[C@@H]1[C@@H](CCCc2ccc(C(=O)O)s2)[C@H](Cl)C[C@H]1O		3.6	24								5620
O=C(O)c1ccc(CCC[C@@H]2[C@@H](CNCc3ccccc3)[C@H](O)C[C@H]2Cl)s1		6	143								
